Test results reported in ChEMBL document CHEMBL5260833, “An overview of quinazolines: Pharmacological significance and recent developments” (Eur J Med Chem, 2018).
In brackets after ≈: the same amount, converted by molar mass.

Assays:
[1] = biological target: T1, Type-1 angiotensin II receptor A (Rattus norvegicus, UniProt P25095); assay: Inhibition of rat adrenal cortex angiotensin II; type: tissue-based
T1 sequence (P25095 whole entry): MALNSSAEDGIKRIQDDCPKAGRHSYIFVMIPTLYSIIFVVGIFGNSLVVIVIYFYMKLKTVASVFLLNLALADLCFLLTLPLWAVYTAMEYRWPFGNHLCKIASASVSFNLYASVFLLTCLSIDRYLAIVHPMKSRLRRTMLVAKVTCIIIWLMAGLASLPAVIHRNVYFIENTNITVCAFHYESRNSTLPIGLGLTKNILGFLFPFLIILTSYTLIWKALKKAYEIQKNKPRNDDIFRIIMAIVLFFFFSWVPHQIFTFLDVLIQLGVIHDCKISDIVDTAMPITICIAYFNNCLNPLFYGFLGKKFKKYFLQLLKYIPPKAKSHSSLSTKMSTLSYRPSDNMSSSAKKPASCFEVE

[2] = test system: Rattus norvegicus; assay: Inhibition of AII induced mean arterial blood pressure in rat assessed as vasoconstrictor at 5 mg/kg, po; type: functional
[3] = test system: Staphylococcus aureus; assay: Antibacterial activity against Staphylococcus aureus assessed as zone of inhibition at 100 ppm; type: functional; details: read-out: IZ
[4] = test system: Escherichia coli; assay: Antibacterial activity against Escherichia coli assessed as zone of inhibition at 100 ppm; type: functional; details: read-out: IZ
[5] = test system: Citrobacter freundii; assay: Antimicrobial activity against Citrobacter freundii assessed as bacterial growth inhibition; type: functional
[6] = test system: Micrococcus luteus; assay: Antimicrobial activity against Micrococcus luteus assessed as bacterial growth inhibition; type: functional
[7] = test system: Proteus vulgaris; assay: Antimicrobial activity against Proteus vulgaris assessed as bacterial growth inhibition; type: functional
[8] = test system: Proteus mirabilis; assay: Antimicrobial activity against Proteus mirabilis assessed as bacterial growth inhibition; type: functional
[9] = test system: Staphylococcus epidermidis; assay: Antimicrobial activity against Staphylococcus epidermidis assessed as bacterial growth inhibition; type: functional
[10] = test system: Klebsiella oxytoca; assay: Antimicrobial activity against Klebsiella oxytoca assessed as bacterial growth inhibition; type: functional
[11] = test system: Mycolicibacterium phlei; assay: Antimicrobial activity against Mycobacterium phlei assessed as bacterial growth inhibition; type: functional
[12] = test system: Candida albicans; assay: Antimicrobial activity against Candida albicans assessed as bacterial growth inhibition; type: functional
[13] = test system: Staphylococcus aureus; assay: Antimicrobial activity against Staphylococcus aureus assessed as bacterial growth inhibition; type: functional
[14] = test system: Escherichia coli; assay: Antimicrobial activity against Escherichia coli assessed as bacterial growth inhibition; type: functional
[15] = test system: Pseudomonas aeruginosa; assay: Antimicrobial activity against Pseudomonas aeruginosa assessed as bacterial growth inhibition; type: functional
[16] = test system: Bacillus subtilis; assay: Antimicrobial activity against Bacillus subtilis assessed as bacterial growth inhibition; type: functional
[17] = test system: Staphylococcus saprophyticus; assay: Antimicrobial activity against Staphylococcus saprophyticus assessed as bacterial growth inhibition; type: functional
[18] = test system: Rattus norvegicus; assay: Inhibition of AII induced rat assessed as vasoconstrictor at 15 mg/kg, iv; type: functional
[19] = test system: Mus musculus; assay: Analgesic activity in […] albino mouse at 20 mg/kg, po measured after 2 hrs by Tail-Flick technique relative to control; type: functional

Structure (SMILES): CCCCc1nc2ccc(C(C)OC)cc2c(=O)n1Cc1ccc(-c2ccccc2-c2nn[nH]n2)cc1 (stereo not given)
- IC50 [1]: 18 nM
- Activity [2]: 65 mmHg

Structure (SMILES): Cc1nc2ccc(I)cc2c(=O)n1/N=C/c1cc(Br)cc(Br)c1O
- zone of inhibition at 100 µg/mL [3]: 16 mm
- zone of inhibition at 100 µg/mL [4]: 14 mm

Structure (SMILES): Cc1nc2ccc(Br)cc2c(=O)n1/N=C/c1cc(Br)cc(Br)c1O
- zone of inhibition at 100 µg/mL [3]: 16 mm
- zone of inhibition at 100 µg/mL [4]: 14 mm

Structure (SMILES): Cc1nc2ccc(I)cc2c(=O)n1/N=C/c1cc(Cl)cc(Cl)c1O
- zone of inhibition at 100 µg/mL [3]: 16 mm
- zone of inhibition at 100 µg/mL [4]: 14 mm

Structure (SMILES): CCOC(=O)Oc1ccc(-n2c(/C=C/c3ccc(Cl)cc3)nc3cc([N+](=O)[O-])ccc3c2=O)cc1
- MIC [5]: 125 µg/mL (≈ 254 µM)
- MIC [6]: 125 µg/mL (≈ 254 µM)
- MIC [7]: 125 µg/mL (≈ 254 µM)
- MIC [8]: 125 µg/mL (≈ 254 µM)
- MIC [9]: 125 µg/mL (≈ 254 µM)
- MIC [10]: 125 µg/mL (≈ 254 µM)
- MIC [11]: 125 µg/mL (≈ 254 µM)
- MIC [12]: 125 µg/mL (≈ 254 µM)
- MIC [13]: 125 µg/mL (≈ 254 µM)
- MIC [14]: 125 µg/mL (≈ 254 µM)
- MIC [15]: 125 µg/mL (≈ 254 µM)
- MIC [16]: 125 µg/mL (≈ 254 µM)
- MIC [17]: 125 µg/mL (≈ 254 µM)

Structure (SMILES): CCC1Nc2ccc(C)cc2C(=O)N1Cc1ccc(-c2ccccc2-c2nn[nH]n2)cc1 (stereo not given)
- IC50 [1]: 13000 nM
- inhibition in vivo at 15 mg/kg [18]: 88%

Structure (SMILES): O=c1c2ccc(Cl)cc2nc(/C=C/c2ccc(Cl)cc2)n1-c1ccc(OCC(O)CN2CCCCC2)cc1 (stereo not given)
- MIC [5]: 125 µg/mL (≈ 227 µM)
- MIC [6]: 125 µg/mL (≈ 227 µM)
- MIC [7]: 125 µg/mL (≈ 227 µM)
- MIC [8]: 125 µg/mL (≈ 227 µM)
- MIC [9]: 125 µg/mL (≈ 227 µM)
- MIC [10]: 125 µg/mL (≈ 227 µM)
- MIC [11]: 125 µg/mL (≈ 227 µM)
- MIC [12]: 125 µg/mL (≈ 227 µM)
- MIC [13]: 125 µg/mL (≈ 227 µM)
- MIC [14]: 125 µg/mL (≈ 227 µM)
- MIC [15]: 125 µg/mL (≈ 227 µM)
- MIC [16]: 125 µg/mL (≈ 227 µM)
- MIC [17]: 125 µg/mL (≈ 227 µM)

Structure (SMILES): CCCCc1nc2ccc(C(C)O)cc2c(=O)n1Cc1ccc(-c2ccccc2-c2nn[nH]n2)cc1 (stereo not given)
- IC50 [1]: 5 nM
- Activity [2]: 65 mmHg

Structure (SMILES): CCCCc1nc2ccc(C(C)(C)O)cc2c(=O)n1Cc1ccc(-c2ccccc2-c2nn[nH]n2)cc1
- IC50 [1]: 5 nM
- Activity [2]: 65 mmHg

Structure (SMILES): CCCCc1nc2ccccc2c(=O)n1NC(=S)N1CCCC1
- Activity [19]: 73%

Structure (SMILES): O=c1c2ccc(Cl)cc2nc(/C=C/c2ccccc2[N+](=O)[O-])n1-c1ccc(O)cc1
- MIC [5]: 125 µg/mL (≈ 298 µM)
- MIC [6]: 125 µg/mL (≈ 298 µM)
- MIC [7]: 125 µg/mL (≈ 298 µM)
- MIC [8]: 125 µg/mL (≈ 298 µM)
- MIC [9]: 125 µg/mL (≈ 298 µM)
- MIC [10]: 125 µg/mL (≈ 298 µM)
- MIC [11]: 125 µg/mL (≈ 298 µM)
- MIC [12]: 125 µg/mL (≈ 298 µM)
- MIC [13]: 125 µg/mL (≈ 298 µM)
- MIC [14]: 125 µg/mL (≈ 298 µM)
- MIC [15]: 125 µg/mL (≈ 298 µM)
- MIC [16]: 125 µg/mL (≈ 298 µM)
- MIC [17]: 125 µg/mL (≈ 298 µM)

Structure (SMILES): CCC(CC)=NNC1=Nc2ccccc2C(=O)C1c1ccc(OC)cc1 (stereo not given)
- Activity [19]: 64%

Structure (SMILES): CCN(CC)C(=S)Nn1c(SC)nc2ccccc2c1=O
- Activity [19]: 67%

Structure (SMILES): CCCCc1nc2ccc(C(OC)c3ccccc3)cc2c(=O)n1Cc1ccc(-c2ccccc2-c2nn[nH]n2)cc1 (stereo not given)
- IC50 [1]: > 1000 nM
- Activity [2]: 65 mmHg

Structure (SMILES): CCCCc1nc2ccc(C(C)NC(C)=O)cc2c(=O)n1Cc1ccc(-c2ccccc2-c2nn[nH]n2)cc1 (stereo not given)
- IC50 [1]: > 1000 nM
- Activity [2]: 65 mmHg

Structure (SMILES): COc1cc(/C=N/n2c(C)nc3ccc(Br)cc3c2=O)cc(I)c1O
- zone of inhibition at 100 µg/mL [3]: 16 mm
- zone of inhibition at 100 µg/mL [4]: 14 mm

Structure (SMILES): CCCC1Nc2ccc(C(C)C)cc2C(=O)N1Cc1ccc(-c2ccccc2-c2nn[nH]n2)cc1 (stereo not given)
- IC50 [1]: 50 nM
- inhibition in vivo at 15 mg/kg [18]: 88%

Structure (SMILES): Cc1nc2ccccc2c(=O)n1NC(=S)N1CCCC1
- Activity [19]: 65%

Structure (SMILES): CCCC1Nc2ccccc2C(=O)N1Cc1ccc(-c2ccccc2-c2nn[nH]n2)cc1 (stereo not given)
- IC50 [1]: 540 nM
- inhibition in vivo at 15 mg/kg [18]: 88%

Structure (SMILES): O=c1c2ccc(Cl)cc2nc(/C=C/c2ccccc2[N+](=O)[O-])n1-c1ccc(OCC2CO2)cc1 (stereo not given)
- MIC [5]: 125 µg/mL (≈ 263 µM)
- MIC [6]: 125 µg/mL (≈ 263 µM)
- MIC [7]: 125 µg/mL (≈ 263 µM)
- MIC [8]: 125 µg/mL (≈ 263 µM)
- MIC [9]: 125 µg/mL (≈ 263 µM)
- MIC [10]: 125 µg/mL (≈ 263 µM)
- MIC [11]: 125 µg/mL (≈ 263 µM)
- MIC [12]: 125 µg/mL (≈ 263 µM)
- MIC [13]: 125 µg/mL (≈ 263 µM)
- MIC [14]: 125 µg/mL (≈ 263 µM)
- MIC [15]: 125 µg/mL (≈ 263 µM)
- MIC [16]: 125 µg/mL (≈ 263 µM)
- MIC [17]: 125 µg/mL (≈ 263 µM)

Structure (SMILES): CCC1Nc2ccccc2C(=O)N1Cc1ccc(-c2ccccc2-c2nn[nH]n2)cc1 (stereo not given)
- IC50 [1]: 45000 nM
- inhibition in vivo at 15 mg/kg [18]: 88%

Structure (SMILES): CC/C(C)=N/n1c(S)nc2sc3c(c2c1=O)CCCC3
- Activity [19]: 72%

Structure (SMILES): CCCCc1nc2ccc(COC)cc2c(=O)n1Cc1ccc(-c2ccccc2-c2nn[nH]n2)cc1
- IC50 [1]: > 1000 nM
- Activity [2]: 65 mmHg
